# From patent publication US20060263802A1 (priority 2003, published 2006)
# Tests used:
# Assay type in all cases: binding
# [1] = test system: human monoclonal antibody CRJB
# [2] = test system: human monoclonal antibody CR57
# [3] = test system: human monoclonal antibody CRJA
# [4] = test system: human monoclonal antibody CRJB; remark: listed apart in the source
# [5] = test system: human monoclonal antibody CR57; remark: listed apart in the source
# [6] = test system: human monoclonal antibody CRJA; remark: listed apart in the source
Sequence,Binding of CRJB to linear peptide (PEPSCAN-ELISA signal) [1],Binding of CR57 to linear peptide (PEPSCAN-ELISA signal) [2],Binding of CRJA to linear peptide (PEPSCAN-ELISA signal) [3],Binding of CRJB (10 μg/ml) to looped/cyclic peptide (PEPSCAN-ELISA signal) [4],Binding of CR57 (10 μg/ml) to looped/cyclic peptide (PEPSCAN-ELISA signal) [5],binding of antibody CR57 to looped/cyclic peptide (PEPSCAN OD) [5],Binding of CRJA (10 μg/ml) to looped/cyclic peptide (PEPSCAN-ELISA signal) [6],Binding of CRJB (10 μg/ml) to looped/cyclic peptide (PEPSCAN-ELISA) [4],Binding of CR57 (10 μg/ml) to looped/cyclic peptide (PEPSCAN-ELISA) [5],Binding of CRJA (10 μg/ml) to looped/cyclic peptide (PEPSCAN-ELISA) [6],Binding of human monoclonal antibody CRJB to linear peptide (PEPSCAN-ELISA signal) [1],Binding of human monoclonal antibody CR57 to linear peptide (PEPSCAN-ELISA signal) [2],Binding of human monoclonal antibody CRJA to linear peptide (PEPSCAN-ELISA signal) [3],Binding of CRJB to looped/cyclic peptide (PEPSCAN-ELISA signal) [4],Binding of CR57 to looped/cyclic peptide (PEPSCAN-ELISA signal) [5],Binding of CRJA to looped/cyclic peptide (PEPSCAN-ELISA signal) [6]
IWMPENPRLGMSCDI,110,98,87,156,329,clearly bound,152,,,,,,,,,
MELLESSVIPLVHPL,125,90,83,,,,,100,115,94,,,,,,
LIPEMQSSLLQQHME,111,89,107,,,,,85,98,91,,,,,,
PRYEESLHNPYPDYR,115,73,103,79,92,,99,,,,,,,,,
PSTVFKDGDEAEDFV,,,,,,,,,,,143,104,105,101,118,113
EVHLPDVHNQVSGVD,,,,,,,,,,,150,91,104,107,125,103
VDERGLYKSLKGACK,108,50,82,,,,,80,105,96,,,,,,
GDEAEDFVEVHLPDV,,,,,,,,,,,124,46,93,87,87,82
LRLMDGTWVAMQTSN,114,103,96,,,,,72,98,92,,,,,,
LHNPYPDYRWLRTVK,106,79,86,93,99,,93,,,,,,,,,
KVGYILAIKMNGFTC,118,78,83,64,96,,71,,,,,,,,,
